Reference: ChEMBL document CHEMBL3044875, “Synthesis and antimicrobial activity of some bisoctahydroxanthene-1,8-dione derivatives” (2011)
Active and inactive are the calls of the source. The calls are words filed in the database; no cut-off is given here.

Tests used:
Rhodotorula mucilaginosa [1] = assay: Antifungal activity against Rhodotorula mucilaginosa at 100 U/disk after 48 hr by disk diffusion method; format: functional, organism-based
Proteus vulgaris [2] = assay: Antibacterial activity against Proteus vulgaris NRRL-B-123 at 10 ug/disk after 24 hr by disk diffusion method; format: functional; conditions: NRRL-B-123, 24 h, read-out: DIZ
Pseudomonas aeruginosa [3] = assay: Antibacterial activity against Pseudomonas aeruginosa ATCC 27853 at 10 ug/disk after 24 hr by disk-diffusion method; format: functional; conditions: ATCC 27853, 24 h, read-out: DIZ
Escherichia coli [4] = assay: Antibacterial activity against Escherichia coli ATCC 25922 at 10 ug/disk after 24 hr by disk-diffusion method; format: functional; conditions: ATCC 25922, 24 h, read-out: DIZ
Nocardia [5] = assay: Antibacterial activity against Nocardia canis at 10 ug/disk after 24 hr by disk diffusion method; format: functional; conditions: read-out: DIZ
[6] = system: Staphylococcus epidermidis; assay: Antibacterial activity against Staphylococcus epidermidis ATCC 12228 at 10 ug/disk after 24 hr by disk diffusion method; format: functional; conditions: ATCC 12228, 24 h, read-out: DIZ
Bacillus cereus [7] = assay: Antibacterial activity against Bacillus cereus NRRL 3711 at 10 ug/disk after 24 hr by disk diffusion method; format: functional; conditions: NRRL 3711, 24 h, read-out: DIZ
Staphylococcus aureus [8] = assay: Antibacterial activity against Staphylococcus aureus ATCC 25923 at 10 ug/disc after 24 hr by disk diffusion method; format: functional; conditions: ATCC 25923, 24 h, read-out: DIZ
Aspergillus niger [9] = assay: Antifungal activity against Aspergillus niger ATCC 10949 at 40 ug/disk after 72 hr by disk diffusion method; format: functional, organism-based
Aspergillus niger [10] = assay: Antifungal activity against Aspergillus niger ATCC 10949 at 20 ug/disk after 72 hr by disk diffusion method; format: functional, organism-based
Rhodotorula mucilaginosa [11] = assay: Antifungal activity against Rhodotorula mucilaginosa at 140 ug/disk after 48 hr by disk diffusion method; format: functional; conditions: read-out: DIZ
Rhodotorula mucilaginosa [12] = assay: Antifungal activity against Rhodotorula mucilaginosa at 20 ug/disk after 48 hr by disk diffusion method; format: functional
Rhodotorula mucilaginosa [13] = assay: Antifungal activity against Rhodotorula mucilaginosa at 40 ug/disk after 48 hr by disk diffusion method; format: functional
Candida albicans [14] = assay: Antifungal activity against Candida albicans ATCC 10231 at 140 ug/disk after 48 hr by disk-diffusion method; format: functional; conditions: ATCC 10231, 48 h, read-out: DIZ
Candida albicans [15] = assay: Antifungal activity against Candida albicans ATCC 10231 at 40 ug/disk after 48 hr by disk-diffusion method; format: functional; conditions: ATCC 10231, 48 h, read-out: DIZ
Candida albicans [16] = assay: Antifungal activity against Candida albicans ATCC 10231 at 20 ug/disk after 48 hr by disk-diffusion method; format: functional
Proteus vulgaris [17] = assay: Antibacterial activity against Proteus vulgaris NRRL-B-123 at 140 ug/disk after 24 hr by disk diffusion method; format: functional, organism-based
Aspergillus niger [18] = assay: Antifungal activity against Aspergillus niger ATCC 10949 at 140 ug/disk after 72 hr by disk diffusion method; format: functional
Proteus vulgaris [19] = assay: Antibacterial activity against Proteus vulgaris NRRL-B-123 at 40 ug/disk after 24 hr by disk diffusion method; format: functional, organism-based
Proteus vulgaris [20] = assay: Antibacterial activity against Proteus vulgaris NRRL-B-123 at 20 ug/disk after 24 hr by disk diffusion method; format: functional, organism-based
Pseudomonas aeruginosa [21] = assay: Antibacterial activity against Pseudomonas aeruginosa ATCC 27853 at 140 ug/disk after 24 hr by disk-diffusion method; format: functional, organism-based
Pseudomonas aeruginosa [22] = assay: Antibacterial activity against Pseudomonas aeruginosa ATCC 27853 at 40 ug/disk after 24 hr by disk-diffusion method; format: functional, organism-based
Pseudomonas aeruginosa [23] = assay: Antibacterial activity against Pseudomonas aeruginosa ATCC 27853 at 20 ug/disk after 24 hr by disk-diffusion method; format: functional, organism-based
Escherichia coli [24] = assay: Antibacterial activity against Escherichia coli ATCC 25922 at 40 ug/disk after 24 hr by disk-diffusion method; format: functional
Escherichia coli [25] = assay: Antibacterial activity against Escherichia coli ATCC 25922 at 140 ug/disk after 24 hr by disk-diffusion method; format: functional
Nocardia [26] = assay: Antibacterial activity against Nocardia canis at 140 ug/disk after 24 hr by disk diffusion method; format: functional
Escherichia coli [27] = assay: Antibacterial activity against Escherichia coli ATCC 25922 at 20 ug/disk after 24 hr by disk-diffusion method; format: functional
Nocardia [28] = assay: Antibacterial activity against Nocardia canis at 40 ug/disk after 24 hr by disk diffusion method; format: functional
Nocardia [29] = assay: Antibacterial activity against Nocardia canis at 20 ug/disk after 24 hr by disk diffusion method; format: functional, organism-based
[30] = system: Staphylococcus epidermidis; assay: Antibacterial activity against Staphylococcus epidermidis ATCC 12228 at 140 ug/disk after 24 hr by disk diffusion method; format: functional
[31] = system: Staphylococcus epidermidis; assay: Antibacterial activity against Staphylococcus epidermidis ATCC 12228 at 40 ug/disk after 24 hr by disk diffusion method; format: functional
[32] = system: Staphylococcus epidermidis; assay: Antibacterial activity against Staphylococcus epidermidis ATCC 12228 at 20 ug/disk after 24 hr by disk diffusion method; format: functional, organism-based
Bacillus cereus [33] = assay: Antibacterial activity against Bacillus cereus NRRL 3711 at 140 ug/disk after 24 hr by disk diffusion method; format: functional; conditions: NRRL 3711, 24 h, read-out: DIZ
Bacillus cereus [34] = assay: Antibacterial activity against Bacillus cereus NRRL 3711 at 40 ug/disk after 24 hr by disk diffusion method; format: functional; conditions: NRRL 3711, 24 h, read-out: DIZ
Bacillus cereus [35] = assay: Antibacterial activity against Bacillus cereus NRRL 3711 at 20 ug/disk after 24 hr by disk diffusion method; format: functional; conditions: NRRL 3711, 24 h, read-out: DIZ
Staphylococcus aureus [36] = assay: Antibacterial activity against Staphylococcus aureus ATCC 25923 at 140 ug/disc after 24 hr by disk diffusion method; format: functional
Staphylococcus aureus [37] = assay: Antibacterial activity against Staphylococcus aureus ATCC 25923 at 40 ug/disc after 24 hr by disk diffusion method; format: functional
Staphylococcus aureus [38] = assay: Antibacterial activity against Staphylococcus aureus ATCC 25923 at 20 ug/disc after 24 hr by disk diffusion method; format: functional

| Molecule | diameter of the inhibition zone (DIZ) (Aspergillus niger [9]) | diameter of the inhibition zone (DIZ) (Aspergillus niger [10]) | zone of inhibition at 140 µg/disc (Rhodotorula mucilaginosa [11]) [mm] | diameter of the inhibition zone (DIZ) (Rhodotorula mucilaginosa [12]) | zone of inhibition at 140 µg/disc (Candida albicans [14]) [mm] | zone of inhibition at 40 µg/disc (Candida albicans [15]) [mm] | diameter of the inhibition zone (DIZ) (Proteus vulgaris [17]) | diameter of the inhibition zone (DIZ) (Proteus vulgaris [19]) | diameter of the inhibition zone (DIZ) (Proteus vulgaris [20]) | diameter of the inhibition zone (DIZ) (Pseudomonas aeruginosa [21]) | diameter of the inhibition zone (DIZ) (Pseudomonas aeruginosa [22]) | diameter of the inhibition zone (DIZ) (Pseudomonas aeruginosa [23]) | diameter of the inhibition zone (DIZ) (Escherichia coli [24]) | diameter of the inhibition zone (DIZ) (Escherichia coli [25]) | diameter of the inhibition zone (DIZ) (Nocardia [26]) | diameter of the inhibition zone (DIZ) (Escherichia coli [27]) | diameter of the inhibition zone (DIZ) (Nocardia [28]) | diameter of the inhibition zone (DIZ) (Nocardia [29]) | diameter of the inhibition zone (DIZ) [30] | diameter of the inhibition zone (DIZ) [31] | also measured |
| --- | --- | --- | --- | --- | --- | --- | --- | --- | --- | --- | --- | --- | --- | --- | --- | --- | --- | --- | --- | --- | --- |
| NYSTATIN | – | – | – | – | – | – | – | – | – | – | – | – | – | – | – | – | – | – | – | – | inhibition zone (IZ) (Rhodotorula mucilaginosa [1]): 21 mm |
| CN(C)[C@@H]1C(O)=C(C(N)=O)C(=O)[C@@]2(O)C(O)=C3C(=O)c4c(O)cccc4[C@@](C)(O)[C@H]3C[C@@H]12 [TETRACYCLINE] | – | – | – | – | – | – | – | – | – | – | – | – | – | – | – | – | – | – | – | – | zone of inhibition at 10 µg/disc (Proteus vulgaris [2]): 15 mm; zone of inhibition at 10 µg/disc (Pseudomonas aeruginosa [3]): 13 mm; zone of inhibition at 10 µg/disc (Escherichia coli [4]): 25 mm; zone of inhibition at 10 µg/disc (Nocardia [5]): 14 mm; zone of inhibition at 10 µg/disc [6]: 15 mm; zone of inhibition at 10 µg/disc (Bacillus cereus [7]): 28 mm; zone of inhibition at 10 µg/disc (Staphylococcus aureus [8]): 40 mm |
| O=C1CC(c2ccccc2)CC2=C1C(c1cccc(C3C4=C(CC(c5ccccc5)CC4=O)OC4=C3C(=O)CC(c3ccccc3)C4)c1)C1=C(CC(c3ccccc3)CC1=O)O2 (stereo not drawn) | inactive | inactive | 7 | inactive | 8 | 8 | inactive | inactive | inactive | inactive | inactive | inactive | inactive | inactive | inactive | inactive | inactive | inactive | inactive | inactive | diameter of the inhibition zone (DIZ) (Rhodotorula mucilaginosa [13]): inactive; zone of inhibition at 20 µg/disc (Candida albicans [16]; ATCC 10231, 48 h, read-out: DIZ): 7 mm; diameter of the inhibition zone (DIZ) (Aspergillus niger [18]): inactive; diameter of the inhibition zone (DIZ) [32]: inactive; zone of inhibition at 140 µg/disc (Bacillus cereus [33]): 12 mm; zone of inhibition at 40 µg/disc (Bacillus cereus [34]): 11 mm; zone of inhibition at 20 µg/disc (Bacillus cereus [35]): 8 mm; diameter of the inhibition zone (DIZ) (Staphylococcus aureus [36]): inactive; diameter of the inhibition zone (DIZ) (Staphylococcus aureus [37]): inactive; diameter of the inhibition zone (DIZ) (Staphylococcus aureus [38]): inactive |
| O=C1CCCC2=C1C(c1cccc(C3C4=C(CCCC4=O)OC4=C3C(=O)CCC4)c1)C1=C(CCCC1=O)O2 | inactive | inactive | 9 | inactive | 7 | 7 | inactive | inactive | inactive | inactive | inactive | inactive | inactive | inactive | inactive | inactive | inactive | inactive | inactive | inactive | zone of inhibition at 40 µg/disc (Rhodotorula mucilaginosa [13]; read-out: DIZ): 7 mm; diameter of the inhibition zone (DIZ) (Candida albicans [16]): inactive; zone of inhibition at 140 µg/disc (Aspergillus niger [18]; ATCC 10949, 72 h, read-out: DIZ): 7 mm; diameter of the inhibition zone (DIZ) [32]: inactive; zone of inhibition at 140 µg/disc (Bacillus cereus [33]): 8 mm; zone of inhibition at 40 µg/disc (Bacillus cereus [34]): 10 mm; zone of inhibition at 20 µg/disc (Bacillus cereus [35]): 8 mm; diameter of the inhibition zone (DIZ) (Staphylococcus aureus [36]): inactive; diameter of the inhibition zone (DIZ) (Staphylococcus aureus [37]): inactive; diameter of the inhibition zone (DIZ) (Staphylococcus aureus [38]): inactive |
